The IC50 is the point on the concentration scale where inhibition reaches its midpoint.

The experiment deals with T1, human RNR (histidine tagged human M1 and human M2 proteins) (Homo sapiens, UniProt P23921).
T1 construct: made in house; host or cells: Escherichia coli
T1 sequence (P23921 1-792): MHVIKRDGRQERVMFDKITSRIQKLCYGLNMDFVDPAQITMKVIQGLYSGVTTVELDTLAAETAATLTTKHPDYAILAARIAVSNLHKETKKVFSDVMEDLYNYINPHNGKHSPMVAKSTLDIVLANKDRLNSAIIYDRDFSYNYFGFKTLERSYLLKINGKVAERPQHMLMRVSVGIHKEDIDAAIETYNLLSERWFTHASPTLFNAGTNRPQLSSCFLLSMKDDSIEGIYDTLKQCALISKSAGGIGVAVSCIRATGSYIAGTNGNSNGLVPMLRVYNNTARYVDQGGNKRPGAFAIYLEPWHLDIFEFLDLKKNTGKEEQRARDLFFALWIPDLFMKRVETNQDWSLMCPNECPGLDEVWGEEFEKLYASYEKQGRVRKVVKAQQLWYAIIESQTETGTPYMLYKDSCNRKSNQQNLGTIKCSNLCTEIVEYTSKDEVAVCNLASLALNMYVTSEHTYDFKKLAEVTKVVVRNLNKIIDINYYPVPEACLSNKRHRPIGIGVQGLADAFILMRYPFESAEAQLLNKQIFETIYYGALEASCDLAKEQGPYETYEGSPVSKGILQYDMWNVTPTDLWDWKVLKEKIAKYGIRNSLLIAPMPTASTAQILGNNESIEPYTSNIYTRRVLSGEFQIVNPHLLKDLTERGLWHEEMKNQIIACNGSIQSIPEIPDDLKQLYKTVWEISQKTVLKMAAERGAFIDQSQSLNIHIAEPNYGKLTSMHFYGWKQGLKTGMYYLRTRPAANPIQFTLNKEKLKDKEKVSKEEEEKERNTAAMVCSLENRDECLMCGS
Put plainly: Human RNR inhibition effect (dCDP formation from CDP). The experiment is classed as biochemical. The conditions noted are these: 10 μM CDP, 37° C. for 30 minutes, read-out: RNR inhibitory activity IC50. A digest of the protocol:
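His-tagged human M1 (isoform 1) and N-terminal 59-aa-truncated M2 (isoform 2), E. coli-expressed, Ni-purified, preincubated 20 min with compound (1% DMSO). Reaction with 10 μM CDP, 2 mM ATP, 0.24 mM NADPH, 6 mM DTT, 4 mM Mg acetate, 100 mM KCl, 50 mM HEPES pH 7.2, 30 min at 37° C. dCDP formed quantified by reverse-phase HPLC after heat stop.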
With `[2H]C([2H])([2H])C1(O)CCOc2c(S(=O)(=O)N[C@H](c3n[nH]c(=O)o3)[C@H](C)c3c(F)ccc(Br)c3C)ccc(Cl)c21` (single isomer, unassigned) [Example 226A], the IC50 stood at 50 nM.
With `C[C@H](c1c(F)ccc2ccccc12)[C@H](NS(=O)(=O)c1ccc(Cl)c2c1OCCC2F)c1n[nH]c(=O)o1` (mixture of isomers) [Example 292, 5-chloro-4-fluoro-N-((1S,2R)-2-(2-fluoronaphthalen-1-yl)-1-(5-oxo-4,5-dihydro-1,3,4-oxadiazol-2-yl)propyl)chroman-8-sulfonamide] the figure was 160 nM; with `COc1ncc(-c2ccc(F)c([C@@H](C)[C@H](NS(=O)(=O)c3ccc(Cl)cc3OC)c3n[nH]c(=O)o3)c2C)cn1` [Example 319, 4-chloro-N-((1S,2R)-2-(6-fluoro-3-(2-methoxypyrimidin-5-yl)-2-methylphenyl)-1-(5-oxo-4,5-dihydro-1,3,4-oxadiazol-2-yl)propyl)-2-methoxybenzenesulfonamide], 280 nM; with `Cc1ccc(F)c([C@@H](C)[C@H](NS(=O)(=O)c2ccc(Br)cc2C(N)=O)c2n[nH]c(=S)o2)c1C` [Example 332, 5-bromo-2-(N-((1S,2R)-2-(6-fluoro-2,3-dimethylphenyl)-1-(5-thioxo-4,5-dihydro-1,3,4-oxadiazol-2-yl)propyl)sulfamoyl)benzamide], 130 nM.
In the case of `Cc1ccc(F)c([C@@H](C)[C@H](NS(=O)(=O)c2ccc3c(c2)CCCO3)c2n[nH]c(=O)o2)c1C` [Example 183, N-((1S,2R)-2-(6-fluoro-2,3-dimethylphenyl)-1-(5-oxo-4,5-dihydro-1,3,4-oxadiazol-2-yl)propyl)chroman-6-sulfonamide], the IC50 was found to be 320 nM.
Consider `Cc1c(Cl)ccc(F)c1[C@@H](C)[C@H](NS(=O)(=O)c1ccc(Cl)c2c1OCCC2(C)N)c1n[nH]c(=O)o1` (single isomer, unassigned) [Example 330A], for which the IC50 came out at 120 nM.
For the compound `COc1cc(N)ccc1S(=O)(=O)N[C@H](c1n[nH]c(=O)o1)[C@H](C)c1cccc2cccc(C)c12` [Example 269, 4-amino-2-methoxy-N-((1S,2R)-2-(8-methylnaphthalen-1-yl)-1-(5-oxo-4,5-dihydro-1,3,4-oxadiazol-2-yl)propyl)benzenesulfonamide], the IC50 is 510 nM.
As to `Cc1ccc(F)c([C@@H](C)[C@H](NS(=O)(=O)c2ccc3c(c2)CC(=O)N3)c2n[nH]c(=O)o2)c1C` [Example 162, N-((1S,2R)-2-(6-fluoro-2,3-dimethylphenyl)-1-(5-oxo-4,5-dihydro-1,3,4-oxadiazol-2-yl)propyl)-2-oxoindoline-5-sulfonamide], the half-inhibitory concentration (IC50) amounted to 740 nM.
On to `Cc1ccc(F)c([C@@H](C)[C@H](NS(=O)(=O)c2ccc(Cl)cc2C(=O)N(C)C)c2n[nH]c(=O)o2)c1C` [Example 246, 5-chloro-2-(N-((1S,2R)-2-(6-fluoro-2,3-dimethylphenyl)-1-(5-oxo-4,5-dihydro-1,3,4-oxadiazol-2-yl)propyl)sulfamoyl)-N,N-dimethylbenzamide], for which the IC50 stood at 500 nM.
The result for `Cc1c(Cl)ccc(F)c1[C@@H](C)[C@H](NS(=O)(=O)c1ccc(F)c2c1OCCC2(C)O)c1n[nH]c(=O)o1` (single isomer, unassigned) [Example 229A] reads 60 nM; that for `Cc1ccc(F)c([C@@H](C)[C@H](NS(=O)(=O)c2ccc(Cl)c3c2OCCC3N)c2n[nH]c(=O)o2)c1C` (stereo partly drawn) [Example 278, 4-amino-5-chloro-N-((1S,2R)-2-(6-fluoro-2,3-dimethylphenyl)-1-(5-oxo-4,5-dihydro-1,3,4-oxadiazol-2-yl)propyl)chroman-8-sulfonamide], 130 nM; that for `CC(O)c1cc(S(=O)(=O)N[C@H](c2n[nH]c(=O)o2)[C@H](C)c2cccc3c2CCC3)ccc1Cl` (stereo partly drawn) [Example 231, 4-chloro-N-((1S,2R)-2-(2,3-dihydro-1H-inden-4-yl)-1-(5-oxo-4,5-dihydro-1,3,4-oxadiazol-2-yl)propyl)-3-(1-hydroxyethyl)benzensulfonamide], 650 nM.
The result for `Cc1ccc(F)c([C@@H](C)[C@H](NS(=O)(=O)c2ccc(Cl)cc2C(N)=O)c2n[nH]c(=O)o2)c1` [Example 21, 5-chloro-2-(N-((1S,2R)-2-(2-fluoro-5-methylphenyl)-1-(5-oxo-4,5-dihydro-1,3,4-oxadiazol-2-yl)propyl)sulfamoyl)benzamide] reads 240 nM.
With `Cc1ccc(F)c([C@@H](C)[C@H](NS(=O)(=O)c2ccc(Cl)c3c2OCC(=O)N3CC(F)F)c2n[nH]c(=O)o2)c1C` [Example 101, 5-chloro-4-(2,2-difluoroethyl)-N-((1S,2R)-2-(6-fluoro-2,3-dimethylphenyl)-1-(5-oxo-4,5-dihydro-1,3,4-oxadiazol-2-yl)propyl)-3-oxo-3,4-dihydro-2H-benzo[b][1,4]oxazine-8-sulfonamide] the figure was 130 nM; with `Cc1ccc(F)c([C@@H](C)[C@H](NS(=O)(=O)c2ccc(Cl)c3c2OCCN3CC(F)F)c2n[nH]c(=O)o2)c1C` [Example 102, 5-chloro-4-(2,2-difluoroethyl)-N-((1S,2R)-2-(6-fluoro-2,3-dimethylphenyl)-1-(5-oxo-4,5-dihydro-2,3,4-oxadiazol-2-yl)propyl)-3,4-dihydro-2H-benzo[b][1,4]oxazine-8-sulfonamide], 140 nM.
Take `C[C@H](c1cccc2ccccc12)[C@H](NS(=O)(=O)c1ccc(Cl)cc1Cl)c1n[nH]c(=O)o1` [Example 46, 2,4-dichloro-N-((1S,2R)-2-(naphthalen-1-yl)-1-(5-oxo-4,5-dihydro-1,3,4-oxadiazol-2-yl)propyl)benzenesulfonamide]: the IC50 was determined as 840 nM.
On to `COC(=O)c1c(F)ccc(S(=O)(=O)N[C@H](c2n[nH]c(=O)o2)[C@H](C)c2c(F)ccc(C)c2C)c1F` [Example 178, methyl 2,6-difluoro-3-(N-((1S,2R)-2-(6-fluoro-2,3-dimethylphenyl)-1-(5-oxo-4,5-dihydro-1,3,4-oxadiazol-2-yl)propyl)sulfamoyl)benzoate], for which the IC50 is 170 nM.

Source of the values: patent publication US20200405697A1, “Antitumor Agent” (Taiho Pharmaceutical Co., Ltd, priority 2017, published 2020).
